According to US12329788B2, “Synbiotic compositions” (Evonik Operations GmbH, priority 2018, dated 2025):
Where a SMILES comes first, the peptide text is derived from it.

What was measured:
colonic human microbiota = test: i-screen intestinal screening model, microbiota composition by 16S rRNA V4 sequencing (whole community, Bacillus persistence); type: cell-based; details: for synergy on microbial community composition (higher increase of Clostridium XIVa, higher decrease of Clostridium XI than single additions): 24 h; for other genera relative abundance: 24 h SIEM, amino acids 3.5 mM; for other genera relative abundance / effect on the microbial community: dipeptides 7 mM; for effect on the microbial community: Example 8, amino acids 3.5 mM, 0% O2
Text: To determine the effect of the probiotic strains Bacillus subtilis DSM 32315, Bacillus subtilis DSM 32540, Bacillus licheniformis DSM 32314 and Bacillus amyloliquefaciens CECT 5940 on adult colonic microbiota, an intestinal screening model was used (i-screen, TNO, the Netherlands). Therefore the i-screen model was inoculated with standard human adult fecal microbiota material, which consisted of pooled fecal donations from 6 healthy adult volunteers (Caucasian, European lifestyle and nutrition). The fecal material was mixed and grown in a fed-batch fermenter for 40 hours to create a standardized microbiota as described previously. These standard adult gut microbiota sets were stored at -80° C. in 12% glycerol. The intestinal microbiota was cultured in vitro in modified standard ileal efflux medium (SIEM), the composition of which was described by and modified as follows: 0.047 g/l pectin, 0.047 g/l xylan, 0.047 g/l arabinogalactan, 0.047 g/l amylopectin, 0.392 g/l starch, 24.0 g/l casein, 24.0 Bacto pepton, 0.4 ox-bile and 0.2 g/l cysteine. All components were supplied by Trititium Microbiology (Veldhoven, The Netherlands). The pH of the medium was adjusted to 5.8. For the i-screen fermentations, the precultured standardized fecal inoculum was diluted 50 times in 1350 μl modified SIEM. All experiments have been carried out in triplicates. The strains Bacillus subtilis (DSM 32315), Bacillus subtilis DSM 32540, Bacillus licheniformis DSM 32314 and Bacillus amyloliquefaciens CECT 5940 were precultured separately in 50 ml LBKelly medium, for about 16 h. Incubation was done in shaking flasks at 37° C. under aerobic conditions. After incubation, bacterial density was determined by optical density measurement at 600 nm. A final stock solution of 1×10^10 cells/ml was prepared in 1 ml buffer solution (0.1 mM MES pH 6). […] DNA extraction for the sequencing of 16S rRNA coding genes was performed as described by […] et al. (2013) with some minor modifications. Approximately 100 μl of the culture materials were added to the wells of a 96 well plate containing per well 300 μl of lysis buffer (Mag Mini DNA Isolation Kit, LGC ltd, UK), 500 μl zirconium beads (0.1 mm; BioSpec products, Bartlesville, OK, USA) and 500 μl of phenol saturated with Tris-HCI (pH 8.0; Carl Roth GMBH, Germany). The 96 well plate was placed in a Mini-BeadBeater-96 (BioSpec products, Bartlesville, Okla, USA) for 2 min at 2100 oscillations/min. DNA was subsequently purified using the Agowa Mag Mini DNA Isolation Kit according to the manufacturer recommendations. Extracted DNA was eluted in a final volume of 60 μl buffer. The microbiota composition was analyzed by 16S rRNA gene amplicon sequencing of the V4 Hypervariable Region. This was Achieved Through a Series of Steps: The amount of bacterial DNA in the i-screen DNA samples was determined by quantitative polymerase chain reaction (qPCR) using primers specific for the bacterial 16S rRNA gene: Subsequently, PCR amplicons of the V4 hypervariable region of the 16S rRNA gene were generated for the individual samples by amplification of […] of DNA as described by (2013), using […]/[…] primers. Primers included Illumina adapters and a unique 8-nt sample index sequence key. A mock control was included for technical quality control. […] The Library was quantified using the Quant-iTTM PicoGreen® dsDNA Assay Kit (Thermo Fisher Scientific). Paired-end sequencing of amplicons was conducted on the Illumina MiSeq platform (Illumina, Eindhoven, The Netherlands). The sequence data was processed with Mothur v.1.36.1 [26] in line with the mothur MiSeq SOP [24]. Before merging the read pairs, low quality regions were trimmed using Btrim with a sliding window size of 5 nt and average quality score of 25. After merging, the sequences were filtered by length while no ambiguous bases were allowed. […] Chimeric sequences were identified per sample using […] [28] in de novo mode and removed. […]

[1] = infused, post-operative anaesthetized dogs; cited from earlier work
[2] = oral supplementation, guinea-pigs treated with methotrexate; cited from earlier work
gut microbiota = details: oral supplementation, overweight humans; cited from earlier work
[3] = in combination with B. amyloliquefaciens (CECT 5940)
[4] = in combination with B. licheniformis (DSM 32314)
[5] = in combination with B. subtilis (DSM 32315)
[6] = microbiota + CECT 5940 (first group so headed, r13-r15)
[7] = microbiota + CECT 5940 (second group so headed, r16-r18)

| Compound | synergy on microbial community composition (higher increase of Clostridium XIVa, higher decrease of Clostridium XI than single additions) (colonic human microbiota; [3]) | synergy on microbial community composition (higher increase of Clostridium XIVa, higher decrease of Clostridium XI than single additions) (colonic human microbiota; [4]) | synergy on microbial community composition (higher increase of Clostridium XIVa, higher decrease of Clostridium XI than single additions) (colonic human microbiota; [5]) | other genera relative abundance (colonic human microbiota; [6]) [%] | other genera relative abundance (colonic human microbiota; [7]) [%] | other genera relative abundance (colonic human microbiota; microbiota + DSM 32315) [%] | other genera relative abundance (colonic human microbiota; microbiota, no probiotic cells) [%] | extraction of the amino acids by skeletal muscle [1] | effect on the microbial community (colonic human microbiota) | mortality [2] | Firmicutes to Bacteriodetes ratio (gut microbiota) |
| --- | --- | --- | --- | --- | --- | --- | --- | --- | --- | --- | --- |
| C[C@H](N)C(=O)N[C@@H](CCC(N)=O)C(=O)O [Ala-Gln, Alanine-Glutamine] (H-Ala-Gln-OH) | synergistic effect | synergistic effect | synergistic effect | 90 | 94 | 96 | 98 | extracted by skeletal muscle almost as well as from mixtures of alanine and glutamine |  |  |  |
| CC(=O)N[C@@H](C)C(=O)N[C@@H](CCC(N)=O)C(=O)O [Ac-Ala-Gln] (Ac-Ala-Gln-OH) |  |  |  | 78 | 76 | 67 | 72 |  |  |  |  |
| NC(=O)CC[C@H](N)C(=O)O [Gln, glutamine, reference compound] | synergistic effect |  |  | 79 | 70 | 74 | 72 |  | no positive effect on the microbial community | reduced mortality | reducing the Firmicutes to Bacteriodetes ratio |
| NCC(=O)O.N[C@@H](CCC(=O)O)C(=O)O [Gly-Glu, Glycine-Glutamic acid] | synergistic effect | synergistic effect | synergistic effect | 91 | 90 | 92 | 95 |  |  |  |  |
| N[C@@H](CCC(=O)O)C(=O)O [Glu, glutamic acid, reference compound] |  |  |  | 73 | 80 | 72 | 72 |  | no positive effect on the microbial community |  |  |
